# Results from patent publication US11492341B2, “ACLY inhibitors and uses thereof” (Nimbus Artemis, Inc., priority 2018, dated 2022).
# Biological target: ACL (Homo sapiens (Human), UniProt P53396)
# Test: ADP-Glo Assay
# Format: biochemical
# Conditions: 3 nM ACL, 15 μM ATP, 3 μM CoA, 300 μM Citrate
# Method: Example 28. ADP-Glo Assay
# Compounds of the present invention were evaluated in an ADP-GLO assay as follows: a) Dilute cpd 1:3 in succession in DMSO by hand for each cpds for 12 pts b) Add 0.1 μL diluted cpd solution to assay plate, each dose with 2 replicates c) Centrifuge 1000 RPM for 1 min d) Add 5 μL ACL working solution to 384-well assay plate, centrifuge 1000 RPM for 1 min e) Incubate at 25° C. for 15 min f) Add 5 μL substrate working solution to initiate reaction g) Final ACL reaction concentrations: 3 nM ACL, 15 μM ATP, 3 μM CoA, 300 μM Citrate, 0.01% Brij35, 4 mM DTT, 1% DMSO; h) Reference final conc: 30 uM starting Conc, 3× dilution, 11+0 points. Test cpd conc: 30/100 uM starting Conc, 3× dilution, 11+0 points. i) Incubate at 25° C. for 60 min j) Add 10 μL ADP Glo reagent, centrifuge 1000 RPM for 1 min k) Incubate at 25° C. for 40 min l) Add 20 μL kinase detection reagent, centrifuge 1000 RPM for 1 min m) Incubate at 25° C. for 40 min n) Read on Envision for US LUM as RLU
# Chain of ACL (P53396 whole entry, species assumed): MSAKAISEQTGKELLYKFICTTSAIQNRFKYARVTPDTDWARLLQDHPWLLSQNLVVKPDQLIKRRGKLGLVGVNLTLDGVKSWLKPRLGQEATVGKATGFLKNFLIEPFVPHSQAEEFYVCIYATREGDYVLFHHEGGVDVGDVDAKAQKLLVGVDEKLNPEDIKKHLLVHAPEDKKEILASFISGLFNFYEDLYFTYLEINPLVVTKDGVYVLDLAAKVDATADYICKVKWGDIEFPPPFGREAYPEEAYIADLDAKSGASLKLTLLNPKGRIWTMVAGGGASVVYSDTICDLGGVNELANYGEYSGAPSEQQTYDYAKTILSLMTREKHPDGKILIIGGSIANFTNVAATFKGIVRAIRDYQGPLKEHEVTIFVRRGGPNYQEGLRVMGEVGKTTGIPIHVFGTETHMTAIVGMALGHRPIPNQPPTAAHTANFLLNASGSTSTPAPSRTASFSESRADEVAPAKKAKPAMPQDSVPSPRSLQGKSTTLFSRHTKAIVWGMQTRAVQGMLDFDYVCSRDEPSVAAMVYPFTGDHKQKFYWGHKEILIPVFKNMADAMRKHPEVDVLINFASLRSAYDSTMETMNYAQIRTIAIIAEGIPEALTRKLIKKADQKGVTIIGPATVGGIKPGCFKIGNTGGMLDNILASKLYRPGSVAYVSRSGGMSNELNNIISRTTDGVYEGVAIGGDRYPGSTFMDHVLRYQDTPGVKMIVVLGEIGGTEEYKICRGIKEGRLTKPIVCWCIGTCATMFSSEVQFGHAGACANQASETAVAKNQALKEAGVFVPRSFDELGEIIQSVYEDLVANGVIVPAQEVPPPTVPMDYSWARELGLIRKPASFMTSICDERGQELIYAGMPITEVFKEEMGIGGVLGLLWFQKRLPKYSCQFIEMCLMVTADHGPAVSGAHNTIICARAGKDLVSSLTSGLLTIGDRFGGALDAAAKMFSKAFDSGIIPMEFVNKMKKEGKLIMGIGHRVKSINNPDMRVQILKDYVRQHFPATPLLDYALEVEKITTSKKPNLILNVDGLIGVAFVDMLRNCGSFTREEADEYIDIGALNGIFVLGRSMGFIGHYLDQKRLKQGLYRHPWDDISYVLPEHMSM
row,Compound,IC50 [µM]
1,CN(C)C(=O)c1ccc2cc(-c3ccccc3)n(S(=O)(=O)c3cc(Br)cc(Cl)c3O)c2c1 [I-80],0.5 to 20
2,N#Cc1ccc2c(c1)cc(C1CC1)n2S(=O)(=O)c1cc(F)cc(F)c1O [I-82],0.5 to 20
3,N#Cc1ccc2c(c1)cc(-c1cnc[nH]1)n2S(=O)(=O)c1cc(F)cc(F)c1O [I-83],0.5 to 20
4,O=C(O)c1cccc(-c2cc3cc(Cl)ccc3n2S(=O)(=O)c2cc(Cl)cc(Cl)c2)c1 [I-84],0.5 to 20
5,N#Cc1ccc2c(c1)cc(-c1cncs1)n2S(=O)(=O)c1cc(F)cc(F)c1O [I-85],0.5 to 20
6,O=S(=O)(c1cc(F)cc(F)c1O)n1c(-c2cncs2)cc2cc(F)ccc21 [I-86],0.5 to 20
7,O=C(O)c1ccc2c(c1)cc(-c1ccccc1)n2S(=O)(=O)c1cc(F)cc(F)c1 [I-87],0.5 to 20
8,O=C(O)Cc1cc2cc(Cl)ccc2n1S(=O)(=O)c1cc(Cl)cc(Cl)c1O [I-88],0.5 to 20
9,O=C(O)c1cc(Br)cc(S(=O)(=O)n2c(-c3ccccc3)cc3cc(Cl)ccc32)c1O [I-89],0.5 to 20
10,O=S(=O)(c1cc(F)cc(F)c1O)n1c(-c2cncnc2)cc2cc(Cl)ccc21 [I-90],0.5 to 20
11,O=S(=O)(c1cc(F)cc(F)c1O)n1c(-c2cccnc2)cc2cc(Cl)ccc21 [I-91],0.5 to 20
12,Cc1ccc2c(c1)cc(-c1cncnc1)n2S(=O)(=O)c1cc(F)cc(F)c1O [I-92],0.5 to 20
13,O=S(=O)(c1cc(F)cc(F)c1O)n1c(-c2ccncc2)cc2cc(Cl)ccc21 [I-93],0.5 to 20
14,O=S(=O)(c1cccc(Cl)c1O)n1c(-c2cncnc2)cc2cc(Cl)ccc21 [I-94],0.5 to 20
15,O=S(=O)(c1cc(F)cc(F)c1O)n1c(-c2ccccn2)cc2cc(Cl)ccc21 [I-95],0.5 to 20
16,Cc1ccc(-c2cc3cc(Cl)ccc3n2S(=O)(=O)c2cc(F)cc(F)c2O)nn1 [I-96],0.5 to 20
17,N#Cc1ccc2c(c1)cc(-c1cncnc1)n2S(=O)(=O)c1cc(F)cc(F)c1O [I-97],0.5 to 20

row,Compound,IC50 [µM]
1,O=S(=O)(c1cc(F)cc(F)c1O)n1c(-c2ccc[n+]([O-])c2)cc2cc(Cl)ccc21 [I-98],0.5 to 20
2,O=S(=O)(c1cc(F)cc(F)c1O)n1c(-c2cccnn2)cc2cc(Cl)ccc21 [I-99],0.5 to 20
3,Cc1ncc(-c2cc3cc(Cl)ccc3n2S(=O)(=O)c2cc(F)cc(F)c2O)cn1 [I-100],0.5 to 20
4,Cc1cncc(-c2cc3cc(Cl)ccc3n2S(=O)(=O)c2cc(F)cc(F)c2O)n1 [I-101],0.5 to 20
5,Cc1ncncc1-c1cc2cc(Cl)ccc2n1S(=O)(=O)c1cc(F)cc(F)c1O [I-102],0.5 to 20
6,O=S(=O)(c1cc(F)cc(F)c1O)n1c(-c2ccnnc2)cc2cc(Cl)ccc21 [I-103],0.5 to 20
7,O=C(O)c1c(-c2ccccc2)c2cc(Cl)ccc2n1S(=O)(=O)c1cc(Cl)cc(Cl)c1 [I-104],0.5 to 20
8,O=S(=O)(c1cc(F)cc(F)c1O)n1c(-c2cnccn2)cc2cc(Cl)ccc21 [I-105],0.5 to 20
9,"O=S(=O)(c1ccccc1O)n1c(-c2ccccc2)cc2cc(Cl)ccc21 [I-106, 2-((5-chloro-2-phenyl-1H-indol-1-yl)sulfonyl)phenol]",≥ 20
10,"COc1c(Cl)cc(Br)cc1S(=O)(=O)n1c(-c2ccccc2)cc2cc(Cl)ccc21 [I-107, 1-((5-bromo-3-chloro-2-methoxyphenyl)sulfonyl)-5-chloro-2-phenyl-1H-indole]",≥ 20
11,CCOC(=O)c1cc2cc(Cl)ccc2n1S(=O)(=O)c1cc(Cl)cc(Cl)c1 [I-108],≥ 20
12,CN(C)C(=O)c1cc2cc(Cl)ccc2n1S(=O)(=O)c1cc(Cl)cc(Cl)c1O [I-111],0.5 to 20
13,O=S(=O)(c1cccc(F)c1O)n1c(-c2ccccc2)cc2cc(Cl)ccc21 [I-112],0.5 to 20
14,COC(=O)c1ccc2c(c1)cc(-c1ccccc1)n2S(=O)(=O)c1cc(F)cc(F)c1 [I-114],≥ 20
15,Cn1cc(-c2cc3cc(C#N)ccc3n2S(=O)(=O)c2cc(F)cc(F)c2O)cn1 [I-118],≥ 20
16,O=S(=O)(c1cncc(O)c1)n1c(-c2ccccc2)cc2cc(Cl)ccc21 [I-119],≥ 20

# Next, values leading:
row,IC50 [µM],Compound
1,≥ 20,COC(=O)c1c(-c2ccccc2)c2cc(Cl)ccc2n1S(=O)(=O)c1cc(Cl)cc(Cl)c1 [I-120]
2,0.5 to 20,O=C(O)c1cc(C(=O)O)c(O)c(S(=O)(=O)n2c(-c3ccccc3)cc3cc(Cl)ccc32)c1 [I-121]
3,≥ 20,O=S(=O)(c1cc(F)cc(F)c1O)n1c(-c2cccc[n+]2[O-])cc2cc(Cl)ccc21 [I-126]
4,0.5 to 20,Cc1cnc(-c2cc3cc(Cl)ccc3n2S(=O)(=O)c2cc(F)cc(F)c2O)cn1 [I-127]
5,0.5 to 20,Cc1nccnc1-c1cc2cc(Cl)ccc2n1S(=O)(=O)c1cc(F)cc(F)c1O [I-135]
6,0.5 to 20,"COc1ccc(Cn2cncc(-c3cc4cc(Cl)ccc4n3S(=O)(=O)c3cc(F)cc(F)c3O)c2=O)cc1 [I-136, 5-(5-chloro-1-((3,5-difluoro-2-hydroxyphenyl)sulfonyl)-1H-indol-2-yl)-3-(4-methoxybenzyl)pyrimidin-4(3H)-one]"
7,0.5 to 20,O=S(=O)(c1cc(F)cc(F)c1O)n1c(-c2cnc(C(F)(F)F)nc2)cc2cc(Cl)ccc21 [I-137]
8,0.5 to 20,COc1ncc(-c2cc3cc(Cl)ccc3n2S(=O)(=O)c2cc(F)cc(F)c2O)cn1 [I-138]
9,0.5 to 20,O=S(=O)(c1cc(F)cc(F)c1O)n1c(-c2cnc(O)nc2)cc2cc(Cl)ccc21 [I-140]
10,0.5 to 20,"O=c1[nH]cncc1-c1cc2cc(Cl)ccc2n1S(=O)(=O)c1cc(F)cc(F)c1O [I-141, 5-(5-chloro-1-((3,5-difluoro-2-hydroxyphenyl)sulfonyl)-1H-indol-2-yl)pyrimidin-4(3H)-one]"
11,0.5 to 20,Cc1cc2cc(Cl)ccc2n1S(=O)(=O)c1cc(-c2ccccc2)cc(Cl)c1O [I-142]
12,0.5 to 20,"O=S(=O)(c1cc(F)cc(F)c1O)n1c(-c2cc3ccccc3s2)cc2cc(Cl)ccc21 [I-143, 2-((2-(benzo[b]thiophen-2-yl)-5-chloro-1H-indol-1-yl)sulfonyl)-4,6-difluorophenol]"
13,0.5 to 20,O=S(=O)(c1cc(Br)cc(Cl)c1O)n1c(-c2cc3ccccc3s2)cc2cc(Cl)ccc21 [I-144]
14,0.5 to 20,"O=C(c1ccc2cc(-c3ccccc3)n(S(=O)(=O)c3cc(Br)cc(Cl)c3O)c2c1)N1CCC1 [I-145, Azetidin-1-yl(1-((5-bromo-3-chloro-2-hydroxyphenyl)sulfonyl)-2-phenyl-1H-indol-6-yl)methanone]"
15,0.5 to 20,O=S(=O)(c1cc(Br)cc(Cl)c1O)n1c(-c2ccc(OC(F)(F)F)nc2)cc2cc(Cl)ccc21 [I-146]
16,0.5 to 20,Cc1cn(S(=O)(=O)c2cc(Br)cc(Cl)c2O)c2ccc(Cl)cc12 [I-147]
17,0.5 to 20,COC(=O)c1cc2c(cc1Cl)cc(C)n2S(=O)(=O)c1cc(Br)cc(Cl)c1O [I-148]

row,IC50 [µM],Compound
1,0.5 to 20,Cc1cc2cc(Cl)ccc2n1S(=O)(=O)c1cc(Cl)c(O)cc1Br [I-149]
2,0.5 to 20,COCOc1cc2c(cc1Cl)cc(C)n2S(=O)(=O)c1cc(Br)cc(Cl)c1O [I-150]
3,0.5 to 20,O=S(=O)(c1cc(Br)cc(Cl)c1O)n1c(Cc2ccccc2OC(F)(F)F)cc2cc(Cl)ccc21 [I-151]
4,0.5 to 20,O=S(=O)(c1cc(Br)cc(Cl)c1O)n1c(-c2cnc(C(F)(F)F)nc2)cc2cc(Cl)ccc21 [I-152]
5,0.5 to 20,O=C(NO)c1ccc2cc(-c3ccccc3)n(S(=O)(=O)c3cc(Br)cc(Cl)c3O)c2c1 [I-154]
6,≥ 20,Cc1nc(=O)c2cc(Cl)ccc2n1S(=O)(=O)c1cc(Br)cc(Cl)c1O [I-155]
7,0.5 to 20,Cc1cc2cc(Cl)ccc2n1S(=O)(=O)c1cc(-c2cncs2)cc(Cl)c1O [I-156]
8,0.5 to 20,O=C(O)c1cc2c(cc1Cl)cc(-c1cncnc1)n2S(=O)(=O)c1cc(Br)cc(Cl)c1O [I-157]
9,0.5 to 20,Cc1cc2cc(Cl)c(O)cc2n1S(=O)(=O)c1cc(Br)cc(Cl)c1O [I-158]
10,< 0.5,O=S(=O)(c1cc(Br)cc(Cl)c1O)n1cc(-c2cncs2)c2cc(Cl)ccc21 [I-159]
11,0.5 to 20,Cc1cc2cc(Cl)c(C(=O)O)cc2n1S(=O)(=O)c1cc(Br)cc(Cl)c1O [I-160]
12,0.5 to 20,N#Cc1ccc2c(c1)cc(-c1cc3ccccc3s1)n2S(=O)(=O)c1cc(Br)cc(Cl)c1O [I-161]
13,0.5 to 20,O=C(c1cc2cc(Cl)ccc2n1S(=O)(=O)c1cc(Br)cc(Cl)c1O)N1CCC1 [I-162]
14,0.5 to 20,O=C(c1cn(S(=O)(=O)c2cc(Br)cc(Cl)c2O)c2ccc(Cl)cc12)N1CCC1 [I-163]
15,≥ 20,CCOC(=O)c1cc2cc(Cl)ccc2n1S(=O)(=O)c1ccc(-c2ccccc2)cc1F [I-164]
16,0.5 to 20,COc1c(F)cc2cc(C)n(S(=O)(=O)c3cc(Br)cc(Cl)c3O)c2c1F [I-165]
